Laboratory results from patent US6818665B2, “Treatment of obstructive sleep apnea” (priority 2003, dated 2004).

Tested on: OSA patients
Assay: oximeter tests / sleeping registration of OSA patients
Type: in vivo
Source text: The medical treatment of OSA must be effective, inexpensive and without any side effects because it must be ongoing for the rest of the patient's life during the sleeping period regardless of the time of the day or night. By conducting regular oximeter tests in connection with the fitting of mechanical assistance, it has been concluded that anti-oxidants, such as tokoferole, has some effect. Hormones that govern the sleep initiation during for example, jet lag, such melatonin that is formed in a gland from the amino-acid tryptophane with serotonin as an intermediate step. […] The corresponding effect has been noticed when the intake has stopped and this effect is normally quicker.
DHEA prevents unwanted complete or total (100%) relaxation of the muscles in the throat region caused melatonin. […] ACTH may be used to increase the production of DHEA. Melatonin may be taken as tablets and lasts about 24 hours. Preferably, melatonin is taken at night. A suitable melatonin dose may be about 0.5-5 mg. DHEA may also be taken as tablets and lasts about 24 hours. Preferably, DHEA is taken in the morning. A suitable DHEA dose may be about 1-5 mg. Of course, melatonin and DHEA may be administered at other times of the day.

With tokoferole the “effect in regular oximeter tests” value (anti-oxidants, oximeter tests in connection with the fitting of mechanical assistance) was “some effect”.

`C[C@]12CC[C@H](O)CC1=CC[C@@H]1[C@@H]2CC[C@]2(C)C(=O)CC[C@@H]12` [DHEA, dehydroepiandrosterone] was tested, and the “effect of parallel intake on the desired effect (reduced desaturations and SpO2 reduction)” value (parallel intake with melatonin, especially in combination with ACTH) was “synergistic increase of the desired effect”.

For `COc1ccc2[nH]cc(CCNC(C)=O)c2c1` [melatonin, 5-metoxy-N-acetyletryptamine], the “effect on the sleeping registration of OSA patients (number of desaturations and level of SpO2 reduction below 90%)” value (low dose 0.5-5 mg depending on age, 10-80 years) was “distinct effect” and the “time to optimal effect” value (regular intake) was “after a couple of weeks”.
